Assay results taken from US20240287078A1, “QUINAZOLINE DERIVATIVES USEFUL AS RAS INHIBITORS” (Redx Pharma PLC, priority 2021, published 2024).

Key:
Type in all cases: biochemical
KRAS G12D = molecular target: T1, KRAS G12D (Homo sapiens, UniProt P01116, G12D); test: HTRF nucleotide exchange assay (NEA), KRAS G12D; conditions: recombinant human KRAS aa1-188 G12D, 2 nM, 60 min compound incubation, EDA-GTP-DY647P1; for inhibition at 10 µM: 1 h
T1 construct: aa1-188 KRAS WT, HRAS WT, NRAS WT, or KRAS containing the containing the G12D, G13D or Q61H amino acid substitutions
Description: (§1) HTRF Nucleotide Exchange Assay Method
(§2) The capacity of compounds to bind KRAS G12D, other KRAS mutants and wildtype RAS isoforms was quantified using a HTRF nucleotide exchange assay. Recombinant human RAS protein (2 nM; aa1-188 KRAS WT, HRAS WT, NRAS WT, or KRAS containing the containing the G12D, G13D or Q61H amino acid substitutions, or 4 nM KRAS; aa1-188 containing the G12V, G12C, G12A or G12S amino acid substitution, an N-terminal 6×His-tag and leader sequence), and 2 nM Europium-labeled anti-6×His antibody were mixed in assay buffer (10 mM HEPES pH7.3, 150 mM NaCl, 5 mM MgCl2, 0.05% BSA, 0.0025% NP-40 and 100 mM KF) with various concentrations of compound in a 384-well plate and a volume of 5 uL. After a 60-minute incubation at room temperature, Sul of 200 nM EDA-GTP-DY647P1 (diluted in assay buffer) was added to the plate. Following 30-minute incubation at room temperature, time-resolved fluorescence was measured on a PerkinElmer Envision plate reader. DMSO (0.3%) and unlabeled GDP (1 μM) or equivalent tool compound were used to generate the Max and Min assay signals, respectively. Data was analysed using a four-parameter logistic model to calculate IC50 values, with at least two independent replicates were performed for each compound.

KRAS WT = molecular target: T2, KRAS WT (Homo sapiens, UniProt P01116); test: HTRF nucleotide exchange assay (NEA), KRAS WT; conditions: recombinant human KRAS WT aa1-188, 2 nM, 60 min compound incubation, EDA-GTP-DY647P1; for inhibition at 10 µM: 1 h
T2 construct: aa1-188 KRAS WT, HRAS WT, NRAS WT
Description: as §1, §2

KRAS G12C = molecular target: T3, KRAS G12C (Homo sapiens, UniProt P01116, G12C); test: HTRF nucleotide exchange assay (NEA), KRAS G12C; conditions: recombinant human KRAS aa1-188 G12C, 4 nM; 60 min compound incubation, EDA-GTP-DY647P1
T3 construct: 4 nM KRAS; aa1-188 containing the G12V, G12C, G12A or G12S amino acid substitution
Description: as §1, §2

KRAS G12V = molecular target: T4, KRAS G12V (Homo sapiens, UniProt P01116, G12V); test: HTRF nucleotide exchange assay (NEA), KRAS G12V; conditions: recombinant human KRAS aa1-188 G12V, 4 nM; 60 min compound incubation, EDA-GTP-DY647P1
T4 construct: 4 nM KRAS; aa1-188 containing the G12V, G12C, G12A or G12S amino acid substitution
Description: as §1, §2

KRAS G13D = molecular target: T5, KRAS G13D (Homo sapiens, UniProt P01116, G13D); test: HTRF nucleotide exchange assay (NEA), KRAS G13D; conditions: recombinant human KRAS aa1-188 G13D, 2 nM, 60 min compound incubation, EDA-GTP-DY647P1; for inhibition at 10 µM: 1 h
T5 construct: aa1-188 KRAS WT, HRAS WT, NRAS WT, or KRAS containing the containing the G12D, G13D or Q61H amino acid substitutions
Description: as §1
The capacity of compounds to bind KRAS G12D, other KRAS mutants and wildtype RAS isoforms was quantified using a HTRF nucleotide exchange assay. […] After a 60-minute incubation at room temperature, Sul of 200 nM EDA-GTP-DY647P1 (diluted in assay buffer) was added to the plate. Following 30-minute incubation at room temperature, time-resolved fluorescence was measured on a PerkinElmer Envision plate reader. DMSO (0.3%) and unlabeled GDP (1 μM) or equivalent tool compound were used to generate the Max and Min assay signals, respectively. Data was analysed using a four-parameter logistic model to calculate IC50 values, with at least two independent replicates were performed for each compound.

KRAS Q61H = molecular target: T6, KRAS Q61H (Homo sapiens, UniProt P01116, Q61H); test: HTRF nucleotide exchange assay (NEA), KRAS Q61H; conditions: recombinant human KRAS aa1-188 Q61H, 2 nM; 60 min compound incubation, EDA-GTP-DY647P1
T6 construct: aa1-188 KRAS WT, HRAS WT, NRAS WT, or KRAS containing the containing the G12D, G13D or Q61H amino acid substitutions
Description: as §1, §2

KRAS G12S = molecular target: T7, KRAS G12S (Homo sapiens, UniProt P01116, G12S); test: HTRF nucleotide exchange assay (NEA), KRAS G12S; conditions: recombinant human KRAS aa1-188 G12S, 4 nM, 60 min compound incubation, EDA-GTP-DY647P1; for inhibition at 10 µM: 1 h
T7 construct: 4 nM KRAS; aa1-188 containing the G12V, G12C, G12A or G12S amino acid substitution
Description: as §1, §2

KRAS G12A = molecular target: T8, KRAS G12A (Homo sapiens, UniProt P01116, G12A); test: HTRF nucleotide exchange assay (NEA), KRAS G12A; conditions: recombinant human KRAS aa1-188 G12A, 4 nM; 60 min compound incubation, EDA-GTP-DY647P1
T8 construct: 4 nM KRAS; aa1-188 containing the G12V, G12C, G12A or G12S amino acid substitution
Description: as §1, §2

T3 sequence (P01116 1-188 isoform P01116-2 G12C): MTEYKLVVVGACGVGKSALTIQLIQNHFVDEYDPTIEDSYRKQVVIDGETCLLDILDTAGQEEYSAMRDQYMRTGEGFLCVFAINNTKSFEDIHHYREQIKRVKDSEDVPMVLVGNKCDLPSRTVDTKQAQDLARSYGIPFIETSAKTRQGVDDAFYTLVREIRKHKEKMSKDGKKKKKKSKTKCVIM
T4 sequence (P01116 1-188 isoform P01116-2 G12V): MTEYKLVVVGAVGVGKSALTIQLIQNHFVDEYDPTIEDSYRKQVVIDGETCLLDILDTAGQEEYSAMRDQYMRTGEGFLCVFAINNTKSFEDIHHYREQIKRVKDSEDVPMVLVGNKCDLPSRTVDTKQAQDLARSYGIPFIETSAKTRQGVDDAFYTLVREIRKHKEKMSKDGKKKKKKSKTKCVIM
T5 sequence (P01116 1-188 isoform P01116-2 G13D): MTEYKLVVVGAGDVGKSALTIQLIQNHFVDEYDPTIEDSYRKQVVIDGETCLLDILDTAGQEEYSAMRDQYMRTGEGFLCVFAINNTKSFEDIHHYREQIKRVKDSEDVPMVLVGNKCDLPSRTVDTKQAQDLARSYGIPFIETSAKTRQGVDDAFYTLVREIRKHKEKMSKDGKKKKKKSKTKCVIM
T7 sequence (P01116 1-188 isoform P01116-2 G12S): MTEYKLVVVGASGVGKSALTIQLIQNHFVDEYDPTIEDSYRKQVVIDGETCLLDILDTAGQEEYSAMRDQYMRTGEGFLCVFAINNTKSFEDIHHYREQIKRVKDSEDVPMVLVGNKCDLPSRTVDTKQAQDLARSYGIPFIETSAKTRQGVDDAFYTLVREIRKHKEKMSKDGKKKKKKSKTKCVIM
T1 sequence (P01116 1-188 isoform P01116-2 G12D): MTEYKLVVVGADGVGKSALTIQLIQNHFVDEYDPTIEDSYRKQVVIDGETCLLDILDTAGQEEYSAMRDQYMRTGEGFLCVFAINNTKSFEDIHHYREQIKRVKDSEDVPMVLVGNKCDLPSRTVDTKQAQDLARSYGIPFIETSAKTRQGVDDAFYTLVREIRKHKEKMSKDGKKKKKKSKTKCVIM
T2 sequence (P01116 1-188 isoform P01116-2): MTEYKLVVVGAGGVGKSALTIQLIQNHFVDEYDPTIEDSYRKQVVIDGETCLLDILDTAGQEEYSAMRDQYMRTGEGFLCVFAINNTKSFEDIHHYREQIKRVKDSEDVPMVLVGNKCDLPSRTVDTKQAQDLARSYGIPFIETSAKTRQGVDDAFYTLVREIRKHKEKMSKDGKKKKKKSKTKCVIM
T8 sequence (P01116 1-188 isoform P01116-2 G12A): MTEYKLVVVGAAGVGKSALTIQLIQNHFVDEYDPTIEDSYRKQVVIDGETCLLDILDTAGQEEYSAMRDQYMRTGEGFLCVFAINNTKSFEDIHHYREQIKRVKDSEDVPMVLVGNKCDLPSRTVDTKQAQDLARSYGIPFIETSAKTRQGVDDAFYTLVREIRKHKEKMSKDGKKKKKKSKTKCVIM
T6 sequence (P01116 1-188 isoform P01116-2 Q61H): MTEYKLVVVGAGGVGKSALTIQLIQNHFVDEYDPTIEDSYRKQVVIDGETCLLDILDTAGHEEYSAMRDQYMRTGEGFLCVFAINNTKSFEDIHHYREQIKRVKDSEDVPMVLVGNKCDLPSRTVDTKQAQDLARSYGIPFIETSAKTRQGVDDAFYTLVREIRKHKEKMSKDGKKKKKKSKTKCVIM

| IC50 (KRAS G12D) [nM] | IC50 (KRAS WT) [nM] | IC50 (KRAS G12C) [nM] | IC50 (KRAS G12V) [nM] | inhibition at 10 µM (KRAS G13D) [%] | IC50 (KRAS Q61H) [nM] | IC50 (KRAS G12S) [nM] | IC50 (KRAS G12A) [nM] | inhibition at 10 µM (KRAS G12D) [%] | inhibition at 10 µM (KRAS WT) [%] | inhibition at 10 µM (KRAS G12S) [%] | IC50 (KRAS G13D) [nM] | SMILES |
| --- | --- | --- | --- | --- | --- | --- | --- | --- | --- | --- | --- | --- |
| 100 to 10000 | 100 to 10000 | 100 to 10000 | 100 to 10000 | 10 to 49 | 100 to 10000 |  |  |  |  |  |  | Cc1c(-c2cc(O)cc3ccccc23)ccc2c(N3CCCOCC3)nc(OCC34CCCN3CCC4)nc12 [Example 2, 4-[2-(1,2,3,5,6,7-hexahydropyrrolizin-8-ylmethoxy)-8-methyl-4-(1,4-oxazepan-4-yl)quinazolin-7-yl]naphthalen-2-ol] |
| 10 to 100 | 10 to 100 | < 10 | < 10 |  | 10 to 100 | 100 to 10000 | 10 to 100 |  |  |  |  | Cc1c(-c2cccc3sc(N)c(C#N)c23)ccc2c(N3CCCOCC3)nc(OCC34CCCN3CCC4)nc12 [Example 22, 2-amino-4-[2-(1,2,3,5,6,7-hexahydropyrrolizin-8-ylmethoxy)-8-methyl-4-(1,4-oxazepan-4-yl)quinazolin-7-yl]benzothiophene-3-carbonitrile] |
| 10 to 100 | 10 to 100 | 10 to 100 | 10 to 100 | 10 to 49 | 100 to 10000 | 100 to 10000 | 10 to 100 |  |  |  |  | Oc1cc(-c2ccc3c(N4CCCOCC4)nc(OCC45CCCN4CCC5)nc3c2F)c2ccccc2c1 [Example 25, 4-[8-fluoro-2-(1,2,3,5,6,7-hexahydropyrrolizin-8-ylmethoxy)-4-(1,4-oxazepan-4-yl)quinazolin-7-yl]naphthalen-2-ol] |
|  |  |  |  | 10 to 49 |  |  |  | 10 to 49 | 10 to 49 |  |  | Cc1c(-c2cc(O)cc3ccccc23)ccc2c(N3CCCOCC3=O)nc(OCC34CCCN3CCC4)nc12 [Example 5, 4-[2-(1,2,3,5,6,7-hexahydropyrrolizin-8-ylmethoxy)-7-(3-hydroxy-1-naphthyl)-8-methyl-quinazolin-4-yl]-1,4-oxazepan-3-one] |
|  |  |  |  |  |  |  |  | 10 to 49 | 10 to 49 |  |  | Cc1nc(-c2ccc3c(N4CCCOCC4)nc(OCC45CCCN4CCC5)nc3c2C)c2ccccc2n1 [Example 14, 4-[2-(1,2,3,5,6,7-hexahydropyrrolizin-8-ylmethoxy)-8-methyl-7-(2-methylquinazolin-4-yl)quinazolin-4-yl]-1,4-oxazepane] |
|  |  |  |  |  |  |  |  | 10 to 49 | 10 to 49 |  |  | Cc1c(-c2cccc3[nH]ncc23)ccc2c(N3CCCOCC3)nc(OCC34CCCN3CCC4)nc12 [Example 19, 4-[2-(1,2,3,5,6,7-hexahydropyrrolizin-8-ylmethoxy)-7-(1H-indazol-4-yl)-8-methyl-quinazolin-4-yl]-1,4-oxazepane] |

More lines, now with the values behind:

| SMILES | IC50 (KRAS G12D) [nM] | IC50 (KRAS WT) [nM] | IC50 (KRAS G12C) [nM] | IC50 (KRAS G12V) [nM] | inhibition at 10 µM (KRAS G13D) [%] | IC50 (KRAS Q61H) [nM] | IC50 (KRAS G12S) [nM] | IC50 (KRAS G12A) [nM] | inhibition at 10 µM (KRAS G12D) [%] | inhibition at 10 µM (KRAS WT) [%] | inhibition at 10 µM (KRAS G12S) [%] | IC50 (KRAS G13D) [nM] |
| --- | --- | --- | --- | --- | --- | --- | --- | --- | --- | --- | --- | --- |
| C#Cc1c(F)ccc2cc(O)cc(-c3ccc4c(N5CCCNC(=O)C5)nc(OC[C@@]56CCCN5C[C@H](F)C6)nc4c3C)c12 (racemic) [Example 24, 4-[7-(8-ethynyl-7-fluoro-3-hydroxy-1-naphthyl)-2-[[rac-(2R,8S)-2-fluoro-1,2,3,5,6,7-hexahydropyrrolizin-8-yl]methoxy]-8-methyl-quinazolin-4-yl]-1,4-diazepan-2-one] | < 10 | < 10 | < 10 | < 10 |  | 10 to 100 | 10 to 100 | < 10 |  |  |  |  |
| Cc1c(-c2cc(O)cc3ccccc23)ccc2c(N3CC4CCC(C3)N4)nc(OCC34CCCN3CCC4)nc12 [Example 1, 4-[4-(3,8-diazabicyclo[3.2.1]octan-3-yl)-2-(1,2,3,5,6,7-hexahydropyrrolizin-8-ylmethoxy)-8-methyl-quinazolin-7-yl]naphthalen-2-ol] | < 10 | 100 to 10000 | 100 to 10000 |  | 10 to 49 |  |  |  |  |  |  |  |
| Cc1c(-c2cc(O)cc3ccccc23)ccc2c(N3CCOCCC3=O)nc(OCC34CCCN3CCC4)nc12 [Example 4, 4-[2-(1,2,3,5,6,7-hexahydropyrrolizin-8-ylmethoxy)-7-(3-hydroxy-1-naphthyl)-8-methyl-quinazolin-4-yl]-1,4-oxazepan-5-one] |  |  |  |  | 10 to 49 |  |  |  | 10 to 49 | 10 to 49 |  |  |
| Cc1c(-c2cc(O)cc3ccccc23)ccc2c(N3CCn4ccnc4C3)nc(OCC34CCCN3CCC4)nc12 [Example 9, 4-[4-(6,8-dihydro-5H-imidazo[1,2-a]pyrazin-7-yl)-2-(1,2,3,5,6,7-hexahydropyrrolizin-8-ylmethoxy)-8-methyl-quinazolin-7-yl]naphthalen-2-ol] |  |  |  |  |  |  |  |  | 10 to 49 | 10 to 49 | 10 to 49 |  |
| C#Cc1c(F)ccc2cc(O)cc(-c3ccc4c(N5CCCOCC5)nc(OC[C@@]56CCCN5C[C@H](F)C6)nc4c3C)c12 (racemic) [Example 6, rac-5-ethynyl-6-fluoro-4-[2-[[(2R,8S)-2-fluoro-1,2,3,5,6,7-hexahydropyrrolizin-8-yl]methoxy]-8-methyl-4-(1,4-oxazepan-4-yl)quinazolin-7-yl]naphthalen-2-ol] | < 10 | < 10 | < 10 | < 10 | 10 to 49 | < 10 | < 10 | < 10 |  |  |  |  |
| C#Cc1c(F)ccc2cc(O)cc(-c3ccc4c(N5CCCOCC5)nc(OC[C@@]56CCCN5C[C@H](F)C6)nc4c3F)c12 (racemic) [Example 26, 5-ethynyl-6-fluoro-4-[8-fluoro-4-(1,4-oxazepan-4-yl)-2-[[rac-(2R,8S)-2-fluoro-1,2,3,5,6,7-hexahydropyrrolizin-8-yl]methoxy]quinazolin-7-yl]naphthalen-2-ol] | < 10 | < 10 | < 10 | < 10 |  |  | < 10 | < 10 |  |  |  |  |
| Cc1c(-c2cc(O)cc3ccccc23)ccc2c(N3CCSCC3)nc(OCC34CCCN3CCC4)nc12 [Example 3, 4-[2-(1,2,3,5,6,7-hexahydropyrrolizin-8-ylmethoxy)-8-methyl-4-thiomorpholino-quinazolin-7-yl]naphthalen-2-ol] | 100 to 10000 | 100 to 10000 | 100 to 10000 |  |  |  |  |  |  |  |  | 100 to 10000 |
| N#Cc1cc2c(N3CCCOCC3)nc(OCC34CCCN3CCC4)nc2c(F)c1-c1cc(O)cc2ccccc12 [Example 27, 8-fluoro-2-(1,2,3,5,6,7-hexahydropyrrolizin-8-ylmethoxy)-7-(3-hydroxy-1-naphthyl)-4-(1,4-oxazepan-4-yl)quinazoline-6-carbonitrile] | 10 to 100 | 10 to 100 | 10 to 100 | 10 to 100 |  |  | 100 to 10000 | 100 to 10000 |  |  |  |  |
| Cc1c(-c2cc(O)cc3ccccc23)ccc2c(N3CCn4cncc4C3)nc(OCC34CCCN3CCC4)nc12 [Example 8, 4-[4-(6,8-dihydro-5H-imidazo[1,5-a]pyrazin-7-yl)-2-(1,2,3,5,6,7-hexahydropyrrolizin-8-ylmethoxy)-8-methyl-quinazolin-7-yl]naphthalen-2-ol] |  |  |  |  |  |  |  |  | 10 to 49 | 10 to 49 | 10 to 49 |  |
| Cc1c(-c2cc(O)cc3ccccc23)ccc2c(N3CCn4nccc4C3)nc(OCC34CCCN3CCC4)nc12 [Example 7] |  |  |  |  |  |  |  |  | 10 to 49 | 10 to 49 | 10 to 49 |  |
